Experimental data taken from PubChem BioAssay (NCI).
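All cell lines were grown in 96-well plates and treated with compound for 48 hours. At the GI50, growth is halved. TGI marks complete inhibition of growth.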

Columns and labels:
Assay in all cases: NCI-60 cell line screen, 48 h
[1] = test system: NCI/ADR-RES ovarian
[2] = test system: SNB-75 CNS
[3] = test system: UACC-257 melanoma
[4] = test system: OVCAR-4 ovarian
[5] = test system: ACHN renal
[6] = test system: IGROV1 ovarian
[7] = test system: OVCAR-3 ovarian
[8] = test system: RXF 393 renal
[9] = test system: SK-OV-3 ovarian
[10] = test system: MOLT-4 leukemia
[11] = test system: HCT-15 colon
[12] = test system: SW-620 colon
[13] = test system: NCI-H23 lung
[14] = test system: SF-539 CNS
[15] = test system: CCRF-CEM leukemia
[16] = test system: SK-MEL-2 melanoma
[17] = test system: MCF7 breast
[18] = test system: EKVX NSCLC
[19] = test system: M14 melanoma
[20] = test system: SNB-19 CNS
[21] = test system: DU-145 prostate
[22] = test system: K-562 leukemia
[23] = test system: HT29 colon
[24] = test system: HCT-116 colon
[25] = test system: HCC-2998 colon
[26] = test system: MDA-MB-435
[27] = test system: HOP-92 NSCLC
[28] = test system: SF-268 CNS
[29] = test system: 786-0 renal
[30] = test system: A498 renal
[31] = test system: COLO 205 colon
[32] = test system: HL-60(TB) leukemia
[33] = test system: MDA-MB-231 breast
[34] = test system: HS 578T breast
[35] = test system: NCI-H522 lung
[36] = test system: OVCAR-5 ovarian
[37] = test system: SK-MEL-5 melanoma
[38] = test system: NCI-H226 lung
[39] = test system: SN12C renal
[40] = test system: PC-3 prostate
[41] = test system: UO-31 renal
[42] = test system: T-47D breast
[43] = test system: CAKI-1 renal
[44] = test system: LOX IMVI melanoma
[45] = test system: U251 CNS
[46] = test system: NCI-H460 lung
[47] = test system: OVCAR-8 ovarian
[48] = test system: MALME-3M melanoma
[49] = test system: BT-549 breast
[50] = test system: SR leukemia
[51] = test system: SK-MEL-28 melanoma
[52] = test system: SF-295 CNS
[53] = test system: RPMI-8226 leukemia
[54] = test system: A549 NSCLC
[55] = test system: TK-10 renal
[56] = test system: UACC-62 melanoma
[57] = test system: KM12 colon
[58] = test system: HOP-62 NSCLC
[59] = test system: MDA-N

With `CCN(CC)c1ccc(/C=N\NC(=O)c2cccc(Nc3ccnc(C(F)(F)F)c3)c2)c(O)c1` the GI50 [1] was 765 nM, the TGI [1] was greater than 28100 nM and the GI50 [2] was 253 nM. The TGI [2] was 7440 nM, the GI50 [3] was 373 nM and the GI50 [4] was 118 nM. It also gave a TGI [4] greater than 100000 nM, a GI50 [5] of 218 nM and a TGI [5] greater than 40400 nM. It also gave a GI50 [6] of 143 nM, a GI50 [7] of 271 nM and a TGI [7] greater than 100000 nM. It also gave a GI50 [8] of 216 nM, a TGI [8] of 1900 nM and a GI50 [9] of 499 nM. It also gave a TGI [9] greater than 100000 nM, a GI50 [10] of 126 nM and a TGI [10] of 1490 nM. It also gave a GI50 [11] of 123 nM, a TGI [11] greater than 100000 nM and a GI50 [12] of 366 nM. It also gave a TGI [12] greater than 100000 nM, a GI50 [13] of 575 nM and a TGI [13] greater than 100000 nM. The GI50 [14] was 279 nM, the TGI [14] was 1450 nM and the GI50 [15] was 84 nM. For the same compound, the TGI [15] was 1270 nM, the GI50 [16] was 893 nM and the TGI [16] was greater than 41200 nM. For the same compound, the GI50 [17] was 296 nM, the TGI [17] was greater than 100000 nM and the GI50 [18] was 219 nM. The TGI [18] was 3800 nM, the GI50 [19] was 217 nM and the TGI [19] was 1430 nM. It also gave a GI50 [20] of 418 nM, a TGI [20] greater than 100000 nM and a GI50 [21] of 159 nM. It also gave a TGI [21] greater than 100000 nM, a GI50 [22] of 374 nM and a TGI [22] greater than 100000 nM. The GI50 [23] was 301 nM, the TGI [23] was 7260 nM and the GI50 [24] was 121 nM. It also gave a TGI [24] of 31000 nM, a GI50 [25] of 278 nM and a TGI [25] of 8760 nM. It also gave a GI50 [26] of 412 nM, a TGI [26] greater than 24100 nM and a GI50 [27] of 1350 nM. It also gave a TGI [27] greater than 100000 nM, a GI50 [28] of 83 nM and a TGI [28] greater than 27300 nM. The GI50 [29] was 270 nM, the TGI [29] was 885 nM and the GI50 [30] was 541 nM. It also gave a TGI [30] of 17000 nM, a GI50 [31] of 327 nM and a TGI [31] of 2580 nM. For the same compound, the GI50 [32] was 299 nM, the TGI [32] was 1050 nM and the GI50 [33] was 345 nM. The TGI [33] was greater than 43100 nM, the GI50 [34] was 374 nM and the TGI [34] was 11600 nM. The GI50 [35] was 393 nM, the TGI [35] was 15700 nM and the GI50 [36] was 408 nM. It also gave a TGI [36] greater than 39300 nM, a GI50 [37] of 242 nM and a TGI [37] of 883 nM. For the same compound, the GI50 [38] was 311 nM, the TGI [38] was 3480 nM and the GI50 [39] was 278 nM. It also gave a TGI [39] greater than 36500 nM, a GI50 [40] of 646 nM and a TGI [40] greater than 100000 nM. The GI50 [41] was 202 nM, the TGI [41] was 2690 nM and the GI50 [42] was 485 nM. The TGI [42] was greater than 100000 nM, the GI50 [43] was 182 nM and the TGI [43] was 496 nM. For the same compound, the GI50 [44] was 133 nM, the TGI [44] was 2220 nM and the GI50 [45] was 183 nM. The TGI [45] was greater than 37500 nM, the GI50 [46] was 199 nM and the TGI [46] was 2240 nM. For the same compound, the GI50 [47] was 342 nM, the TGI [47] was greater than 100000 nM and the GI50 [48] was 348 nM. It also gave a TGI [48] of 4320 nM, a GI50 [49] of 427 nM and a TGI [49] greater than 65100 nM. The GI50 [50] was 96.7 nM, the TGI [50] was 736 nM and the GI50 [51] was 191 nM. It also gave a TGI [51] greater than 20800 nM, a GI50 [52] of 312 nM and a TGI [52] of 2470 nM. For the same compound, the GI50 [53] was 152 nM, the TGI [53] was 2200 nM and the GI50 [54] was 587 nM. The TGI [54] was greater than 100000 nM, the GI50 [55] was 371 nM and the TGI [55] was greater than 100000 nM. For the same compound, the GI50 [56] was 250 nM, the TGI [56] was 1680 nM and the GI50 [57] was 342 nM. It also gave a TGI [57] greater than 100000 nM, a GI50 [58] of 184 nM and a TGI [58] of 1960 nM.

For `CN(CCc1ccccn1)C(=S)N/N=C/c1ccccn1`, the TGI [1] was 18000 nM, the TGI [2] was greater than 100000 nM and the TGI [3] was 895 nM. For the same compound, the TGI [4] was 21400 nM, the TGI [5] was 1410 nM and the TGI [6] was 1210 nM. The TGI [7] was 25900 nM, the TGI [8] was 2980 nM and the TGI [9] was greater than 51300 nM. For the same compound, the TGI [59] was 37400 nM, the TGI [10] was less than 25 nM and the TGI [11] was 35600 nM. It also gave a TGI [12] greater than 100000 nM, a TGI [13] of 13800 nM and a TGI [14] of 365 nM. For the same compound, the TGI [15] was less than 10 nM, the TGI [16] was 270 nM and the TGI [17] was greater than 100000 nM. It also gave a TGI [19] of 2340 nM, a TGI [20] greater than 100000 nM and a TGI [21] greater than 100000 nM. It also gave a TGI [22] of 49.3 nM, a TGI [23] of 43100 nM and a TGI [25] of 37700 nM. For the same compound, the TGI [26] was 38100 nM, the TGI [27] was 3660 nM and the TGI [28] was greater than 100000 nM. For the same compound, the TGI [29] was greater than 38800 nM, the TGI [30] was 1300 nM and the TGI [31] was 727 nM. It also gave a TGI [32] of less than 10 nM, a TGI [33] of 982 nM and a TGI [34] greater than 87200 nM. It also gave a TGI [35] of 290 nM, a TGI [36] of 44600 nM and a TGI [37] of 902 nM. It also gave a TGI [38] of 255 nM, a TGI [39] greater than 36200 nM and a TGI [40] greater than 58100 nM. For the same compound, the TGI [41] was 17800 nM, the TGI [42] was 22200 nM and the TGI [43] was 17200 nM. The TGI [44] was 13600 nM, the TGI [45] was greater than 94900 nM and the TGI [46] was 2070 nM. For the same compound, the TGI [48] was 8810 nM, the TGI [50] was less than 10 nM and the TGI [51] was greater than 100000 nM. For the same compound, the TGI [52] was greater than 43500 nM, the TGI [53] was 42.4 nM and the TGI [54] was 3750 nM. The TGI [55] was 668 nM, the TGI [56] was 15700 nM and the TGI [57] was 17100 nM. It also gave a TGI [58] of 3480 nM.

With `O=C(O)C1(Cc2ccc3c(c2)CCC3)Cc2cc3c(cc2C1)CCC3` the TGI [2] was greater than 100000 nM, the TGI [4] was greater than 100000 nM and the TGI [5] was greater than 100000 nM. It also gave a TGI [6] greater than 100000 nM, a TGI [7] greater than 100000 nM and a TGI [9] greater than 100000 nM. The TGI [59] was greater than 100000 nM, the TGI [10] was greater than 100000 nM and the TGI [11] was greater than 100000 nM. For the same compound, the TGI [12] was greater than 100000 nM, the TGI [14] was greater than 100000 nM and the TGI [15] was greater than 100000 nM. It also gave a TGI [16] greater than 100000 nM, a TGI [17] greater than 100000 nM and a TGI [18] greater than 100000 nM. It also gave a TGI [19] greater than 100000 nM, a TGI [20] greater than 100000 nM and a TGI [21] greater than 100000 nM. For the same compound, the TGI [22] was greater than 100000 nM, the TGI [23] was greater than 100000 nM and the TGI [24] was greater than 100000 nM. The TGI [25] was greater than 100000 nM, the TGI [26] was greater than 100000 nM and the TGI [27] was greater than 100000 nM. For the same compound, the TGI [28] was greater than 100000 nM, the TGI [29] was greater than 100000 nM and the TGI [30] was greater than 100000 nM. It also gave a TGI [31] greater than 100000 nM, a TGI [32] greater than 100000 nM and a TGI [34] greater than 100000 nM. It also gave a TGI [36] greater than 100000 nM, a TGI [37] greater than 100000 nM and a TGI [38] greater than 100000 nM. It also gave a TGI [40] greater than 100000 nM, a TGI [41] greater than 100000 nM and a TGI [44] greater than 100000 nM. It also gave a TGI [45] greater than 100000 nM, a TGI [47] greater than 100000 nM and a TGI [48] greater than 100000 nM. For the same compound, the TGI [49] was greater than 100000 nM, the TGI [50] was greater than 100000 nM and the TGI [51] was greater than 100000 nM. The TGI [53] was greater than 100000 nM, the TGI [54] was greater than 100000 nM and the TGI [55] was greater than 100000 nM. The TGI [56] was greater than 100000 nM and the TGI [57] was greater than 100000 nM.
